US20210261512A1, “NOVEL COMPOUNDS” (INFLAZOME LIMITED, priority 2018, published 2021)

Columns and labels:
NLRP3 [1] = molecular target: T1, NLRP3 (Homo sapiens, UniProt Q96P20); assay: THP-1 cells pyroptosis assay; format: cell-based; design: Seed THP-1 cells (25,000 cells/well) containing 1.0 μg/ml LPS; host or cells: THP-1; conditions: LPS 1.0 μg/ml, nigericin 5 μM, resazurin readout, 10 μM top dose (Example 2: top dose of 30 μM)
Outline: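 THP-1 cells (25,000/well) primed with 1 μg/ml LPS in serum-free RPMI, treated with compound (8-point dilution, 10 μM top unless stated; 0.1% DMSO) 3 h at 37°C, then nigericin 5 μM 1 h. Viability read by resazurin (100 μM, 1-2 h) fluorescence; IC50 from 4-parameter fit.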

NLRP3 [2] = molecular target: T1, NLRP3; assay: Human whole blood IL1β release assay; format: cell-based; conditions: LPS 1 μg/ml, nigericin 10 μM, IL-1β AlphaLisa, 10 μM top dose (Example 2: top dose of 30 μM), read-out: HWB IC50
Protocol: For systemic delivery, the ability to inhibit NLRP3 when the compounds are present within the bloodstream is of great importance. For this reason, the NLRP3 inhibitory activity of a number of compounds in human whole blood was investigated in accordance with the following protocol.
Human whole blood in sodium-heparin or lithium-heparin tubes was obtained from healthy donors from a volunteer donor panel. • 1. Plate out 80 μl of whole blood containing 1 μg/ml of LPS in 96-well, clear bottom cell culture plate (Corning #3585) • 2. Add 10 μl compound (8 points half-log dilution with 10 μM top dose, unless stated otherwise) or vehicle (DMSO 0.1% FAC) to the appropriate wells • 3. Incubate for 3 hrs at 37° C., 5% CO2 • 4. Add 10 μl nigericin (Sigma #N7143) (10 μM FAC) to all wells • 5. Incubate for 1 hr at 37° C., 5% CO2 • 6. At the end of the incubation period, spin plates at 300×g for 5 mins to pellet cells and remove 20 μl of supernatant and add to 96-well v-bottom plates for IL-1β analysis (note: these plates containing the supernatants can be stored at −80° C. to be analysed at a later date) • 7. IL-1β was measured according to the manufacturer protocol (Perkin Elmer-AlphaLisa IL-1 Kit AL220F-5000) • 8. IC50 data is fitted to a non-linear regression equation (log inhibitor vs response-variable slope 4-parameters)

T1 sequence (Q96P20 whole entry): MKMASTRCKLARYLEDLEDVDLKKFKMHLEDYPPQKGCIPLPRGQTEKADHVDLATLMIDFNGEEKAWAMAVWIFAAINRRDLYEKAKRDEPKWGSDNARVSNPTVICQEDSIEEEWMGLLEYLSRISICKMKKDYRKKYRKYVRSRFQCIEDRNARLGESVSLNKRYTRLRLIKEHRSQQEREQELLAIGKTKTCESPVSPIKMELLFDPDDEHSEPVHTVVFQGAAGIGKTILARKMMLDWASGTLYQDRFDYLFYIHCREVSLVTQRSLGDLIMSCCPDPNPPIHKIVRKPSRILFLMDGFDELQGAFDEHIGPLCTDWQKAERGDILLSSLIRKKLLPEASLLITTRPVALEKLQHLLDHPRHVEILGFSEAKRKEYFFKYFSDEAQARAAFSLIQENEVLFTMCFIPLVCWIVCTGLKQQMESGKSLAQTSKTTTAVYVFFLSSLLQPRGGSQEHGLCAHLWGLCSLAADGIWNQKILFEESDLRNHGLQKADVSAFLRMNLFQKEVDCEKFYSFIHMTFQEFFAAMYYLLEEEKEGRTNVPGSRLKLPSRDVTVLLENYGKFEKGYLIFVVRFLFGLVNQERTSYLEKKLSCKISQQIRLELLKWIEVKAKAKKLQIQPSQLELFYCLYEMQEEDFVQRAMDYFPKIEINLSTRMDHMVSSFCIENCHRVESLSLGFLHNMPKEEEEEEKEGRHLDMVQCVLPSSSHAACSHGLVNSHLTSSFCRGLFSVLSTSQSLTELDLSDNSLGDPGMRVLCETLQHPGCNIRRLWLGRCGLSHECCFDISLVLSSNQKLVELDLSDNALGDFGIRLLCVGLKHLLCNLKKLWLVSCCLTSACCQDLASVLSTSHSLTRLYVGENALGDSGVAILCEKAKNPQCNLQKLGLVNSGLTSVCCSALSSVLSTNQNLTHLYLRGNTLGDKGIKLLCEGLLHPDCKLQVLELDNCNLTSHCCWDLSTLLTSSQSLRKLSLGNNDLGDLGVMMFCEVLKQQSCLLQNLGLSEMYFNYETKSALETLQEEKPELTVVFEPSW

| Structure (SMILES) | IC50 (NLRP3 [1]) [nM] | IC50 (NLRP3 [2]) [nM] |
| --- | --- | --- |
| O=S(=O)(NCC1CCCCN1)c1nnc(Nc2c3c(cc4c2CCC4)CCC3)[nH]1 (centres unmarked) [Example 132, 5-((1,2,3,5,6,7-hexahydro-s-indacen-4-yl)amino)-N-(piperidin-2-ylmethyl)-4H-1,2,4-triazole-3-sulfonamide] | ≤ 500 | ≤ 10000 |
| CN1CCCCC1CNS(=O)(=O)c1nnc(Nc2c3c(cc4c2CCC4)CCC3)[nH]1 (centres unmarked) [Example 141, 5-((1,2,3,5,6,7-hexahydro-s-indacen-4-yl)amino)-N-((1-methylpiperidin-2-yl)methyl)-4H-1,2,4-triazole-3-sulfonamide] | ≤ 5000 | ≤ 10000 |
| CCN(CC)C[C@@H]1CCN(S(=O)(=O)c2nnc(Nc3c4c(cc5c3CCC5)CCC4)[nH]2)C1 [Example 143, (S)-5-((3-((diethylamino)methyl)pyrrolidin-1-yl)sulfonyl)-N-(1,2,3,5,6,7-hexahydro-s-indacen-4-yl)-4H-1,2,4-triazol-3-amine] | ≤ 500 | ≤ 500 |
| CCN(CC)C[C@H]1CCN(S(=O)(=O)c2nnc(Nc3c4c(cc5c3CCC5)CCC4)[nH]2)C1 [Example 144, (R)-5-((3-((diethylamino)methyl)pyrrolidin-1-yl)sulfonyl)-N-(1,2,3,5,6,7-hexahydro-s-indacen-4-yl)-4H-1,2,4-triazol-3-amine] | ≤ 500 | ≤ 500 |
| CC(C)c1cc(F)cc(-c2ccncc2)c1Oc1nnc(S(=O)(=O)N2CCC(CN(C)C)C2)[nH]1 (centres unmarked) [Example 152, 1-(1-((5-(4-fluoro-2-isopropyl-6-(pyridin-4-yl)phenoxy)-4H-1,2,4-triazol-3-yl)sulfonyl)pyrrolidin-3-yl)-N,N-dimethylmethanamine] | ≤ 5000 | ≤ 5000 |
| O=S(=O)(c1nnc(Nc2c3c(cc4c2CCC4)CCC3)[nH]1)c1ccccc1F [Example 179, 5-((2-fluorophenyl)sulfonyl)-N-(1,2,3,5,6,7-hexahydro-s-indacen-4-yl)-4H-1,2,4-triazol-3-amine] | ≤ 1000 | ≤ 10000 |
| COc1cc(-c2cc(C#N)c3c(c2Nc2nnc(S(=O)(=O)c4ccccc4)[nH]2)CCC3)ccn1 [Example 192, 6-(2-methoxypyridin-4-yl)-7-((5-(phenylsulfonyl)-4H-1,2,4-triazol-3-yl)amino)-2,3-dihydro-1H-indene-4-carbonitrile] | ≤ 1000 | ≤ 5000 |
| [2H]C([2H])([2H])Oc1cc(-c2ccc3c(c2Nc2nnc(S(=O)(=O)N4CC5(CCN(C)C5)C4)[nH]2)CCO3)ccn1 [Example 195, N-(5-(2-(methoxy-d)pyridin-4-yl)-2,3-dihydrobenzofuran-4-yl)-5-((6-methyl-2,6-diazaspiro[3-4]octan-2-yl)sulfonyl)-4H-1,2,4-triazol-3-amine] | ≤ 500 | ≤ 500 |
| [2H]C([2H])([2H])Oc1cc(-c2ccc3c(c2Nc2nnc(S(=O)(=O)N4CC5(CCN(C)C5)C4)[nH]2)CCC3)ccn1 [Example 196, N-(5-(2-(methoxy-d)pyridin-4-yl)-2,3-dihydro-1H-inden-4-yl)-5-((6-methyl-2,6-diazaspiro[3.4]octan-2-yl)sulfonyl)-4H-1,2,4-triazol-3-amine] | ≤ 500 | ≤ 500 |
| CC(C)c1cnn(-c2ccncc2)c1Nc1nnc(S(=O)(=O)N2CCC(N(C)C)CC2)[nH]1 [Example 197, 1-((5-((4-isopropyl-1-(pyridin-4-yl)-1H-pyrazol-5-yl)amino)-4H-1,2,4-triazol-3-yl)sulfonyl)-N,N-dimethylpiperidin-4-amine] | ≤ 500 | ≤ 500 |
| CN(C)C1CCN(S(=O)(=O)c2nnc(Nc3c(-c4ccnc(C5CC5)c4)ccc4c3CCC4)[nH]2)CC1 [Example 199, 1-((5-((5-(2-cyclopropylpyridin-4-yl)-2,3-dihydro-1H-inden-4-yl)amino)-4H-1,2,4-triazol-3-yl)sulfonyl)-N,N-dimethylpiperidin-4-amine] | ≤ 500 | ≤ 5000 |
| CN1CCC12CCN(S(=O)(=O)c1nnc(Nc3c(-c4ccnc(OC(F)F)c4)ccc4c3CCC4)[nH]1)CC2 [Example 200, N-(5-(2-(difluoromethoxy)pyridin-4-yl)-2,3-dihydro-1H-inden-4-yl)-5-((1-methyl-1,7-diazaspiro[3.5]nonan-7-yl)sulfonyl)-4H-1,2,4-triazol-3-amine] | ≤ 500 | ≤ 5000 |

Further lines, results first:

| IC50 (NLRP3 [1]) [nM] | IC50 (NLRP3 [2]) [nM] | Structure (SMILES) |
| --- | --- | --- |
| ≤ 1000 | ≤ 10000 | CN1CCCC(CNS(=O)(=O)c2nnc(Nc3c4c(cc5c3CCC5)CCC4)[nH]2)C1 (centres unmarked) [Example 128, 5-((1,2,3,5,6,7-hexahydro-s-indacen-4-yl)amino)-N-((1-methylpiperidin-3-yl)methyl)-4H-1,2,4-triazole-3-sulfonamide] |
| ≤ 500 | ≤ 10000 | O=S(=O)(c1nnc(Nc2c3c(cc4c2CCC4)CCC3)[nH]1)N1CC(N2CCCCC2)C1 [Example 133, N-(1,2,3,5,6,7-hexahydro-s-indacen-4-yl)-5-((3-(piperidin-1-yl)azetidin-1-yl)sulfonyl)-4H-1,2,4-triazol-3-amine] |
| ≤ 500 | ≤ 5000 | O=S(=O)(c1nnc(Nc2c3c(cc4c2CCC4)CCC3)[nH]1)N1CC(N2CCCC2)C1 [Example 136, N-(1,2,3,5,6,7-hexahydro-s-indacen-4-yl)-5-((3-(pyrrolidin-1-yl)azetidin-1-yl)sulfonyl)-4H-1,2,4-triazol-3-amine] |
| ≤ 500 | ≤ 500 | CN1CC2(C1)CN(S(=O)(=O)c1nnc(Nc3c4c(cc5c3CCC5)CCC4)[nH]1)C2 [Example 137, N-(1,2,3,5,6,7-hexahydro-s-indacen-4-yl)-5-((6-methyl-2,6-diazaspiro[3.3]heptan-2-yl)sulfonyl)-4H-1,2,4-triazol-3-amine] |
| ≤ 5000 | ≤ 5000 | CN1CC2CN(S(=O)(=O)c3nnc(Nc4c5c(cc6c4CCC6)CCC5)[nH]3)CC2C1 (centres unmarked) [Example 138, N-(1,2,3,5,6,7-hexahydro-s-indacen-4-yl)-5-((5-methylhexahydropyrrolo[3,4-c]pyrrol-2 (1H)-yl)sulfonyl)-4H-1,2,4-triazol-3-amine] |
| ≤ 1000 | ≤ 10000 | CN(C)C(=O)C1CCN(S(=O)(=O)c2nnc(Nc3c4c(cc5c3CCC5)CCC4)[nH]2)C1 (centres unmarked) [Example 139, 1-((5-((1,2,3,5,6,7-hexahydro-s-indacen-4-yl)amino)-4H-1,2,4-triazol-3-yl)sulfonyl)-N,N-dimethylpyrrolidine-3-carboxamide] |
| ≤ 1000 | ≤ 5000 | O=S(=O)(c1nnc(Nc2c3c(cc4c2CCC4)CCC3)[nH]1)N1CC2(CCOCC2)C1 [Example 145, 5-(7-oxa-2-azaspiro[35]nonan-2-ylsulfonyl)-N-(1,2,3,5,6,7-hexahydro-s-indacen-4-yl)-4H-1,2,4-triazol-3-amine] |
| ≤ 5000 | ≤ 10000 | O=S(=O)(c1nnc(Nc2c3c(cc4c2CCC4)CCC3)[nH]1)N1CC2(CCOC2)C1 [Example 146, 5-(6-oxa-2-azaspiro[3.4]octan-2-ylsulfonyl)-N-(1,2,3,5,6,7-hexahydro-s-indacen-4-yl)-4H-1,2,4-triazol-3-amine] |
| ≤ 500 | ≤ 500 | CN(C)C[C@@H]1CCN(S(=O)(=O)c2nnc(Nc3c4c(cc5c3CCC5)CCC4)[nH]2)C1 [Example 147, (S)-5-((3-((dimethylamino)methyl)pyrrolidin-1-yl)sulfonyl)-N-(1,2,3,5,6,7-hexahydro-s-indacen-4-yl)-4H-1,2,4-triazol-3-amine] |
| ≤ 500 | ≤ 500 | CN(C)C[C@H]1CCN(S(=O)(=O)c2nnc(Nc3c4c(cc5c3CCC5)CCC4)[nH]2)C1 [Example 148, (R)-5-((3-((dimethylamino)methyl)pyrrolidin-1-yl)sulfonyl)-N-(1,2,3,5,6,7-hexahydro-s-indacen-4-yl)-4H-1,2,4-triazol-3-amine] |
| ≤ 1000 | ≤ 5000 | CN(C)CC1CN(S(=O)(=O)c2nnc(Nc3c4c(cc5c3CCC5)CCC4)[nH]2)CCO1 (centres unmarked) [Example 149, 5-((2-((dimethylamino)methyl)morpholino)sulfonyl)-N-(1,2,3,5,6,7-hexahydro-s-indacen-4-yl)-4H-1,2,4-triazol-3-amine] |
| ≤ 5000 | ≤ 5000 | O=S(=O)(c1nnc(Nc2c3c(cc4c2CCC4)CCC3)[nH]1)N1CC2(CNC2)C1 [Example 150, 5-(2,6-Diazaspiro[33]heptan-2-ylsulfonyl)-N-(1,2,3,5,6,7-hexahydro-s-indacen-4-yl)-4H-1,2,4-triazol-3-amine] |
| ≤ 5000 | ≤ 5000 | CC(C)(O)C1CN(S(=O)(=O)c2nnc(Nc3c4c(cc5c3CCC5)CCC4)[nH]2)C1 [Example 151, 2-(1-((5-((1,2,3,5,6,7-hexahydro-s-indacen-4-yl)amino)-4H-1,2,4-triazol-3-yl)sulfonyl)azetidin-3-yl)propan-2-ol] |
